Values belong to the compound of their own block, whether it stands above or below them.
Experiments:
[1] = biological target: wild-type BTK (Homo sapiens, UniProt Q06187); assay: In vitro kinase activity assay, wild-type BTK (Nanosyn)
[2] = biological target: T1, BTK (Homo sapiens, UniProt Q06187); assay: BTK degradation in Mino cells, dose-response Western blot; assay type: cell-based; design: endogenous in cells; host or cells: Mino (ATCC CRL-3000), Ramos (ATCC CRL-1596), K562 (NCI-60); settings: MINO, 24 h, read-out: Dmax (maximal degradation)
T1 sequence (Q06187 whole entry): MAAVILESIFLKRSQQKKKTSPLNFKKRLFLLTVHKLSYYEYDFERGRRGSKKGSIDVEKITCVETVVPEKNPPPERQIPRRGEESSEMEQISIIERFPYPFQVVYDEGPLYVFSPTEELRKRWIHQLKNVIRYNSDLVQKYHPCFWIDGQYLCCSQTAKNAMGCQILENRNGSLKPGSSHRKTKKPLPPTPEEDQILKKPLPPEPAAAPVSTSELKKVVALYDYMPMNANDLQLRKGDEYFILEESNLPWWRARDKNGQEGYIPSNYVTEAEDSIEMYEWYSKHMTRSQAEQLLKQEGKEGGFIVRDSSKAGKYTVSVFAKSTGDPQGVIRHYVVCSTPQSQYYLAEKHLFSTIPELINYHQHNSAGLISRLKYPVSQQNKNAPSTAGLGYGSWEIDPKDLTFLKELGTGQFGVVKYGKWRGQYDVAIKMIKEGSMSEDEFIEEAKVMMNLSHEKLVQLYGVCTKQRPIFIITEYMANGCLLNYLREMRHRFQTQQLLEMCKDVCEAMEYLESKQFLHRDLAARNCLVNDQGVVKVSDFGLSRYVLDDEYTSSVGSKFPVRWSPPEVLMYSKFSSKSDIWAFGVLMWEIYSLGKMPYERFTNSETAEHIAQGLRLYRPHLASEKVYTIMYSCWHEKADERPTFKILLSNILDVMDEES
Description: We evaluated the ability of the compounds to induce degradation of BTK in human cell lines. We incubated Mino cells with the compounds and followed BTK levels after 24 h by Western blot (Figure 2, Supporting Figure 2). […] The irreversible acrylamides IR-1 and IR-2 and the cyanoacrylamide RC-3 followed closely with DC50’s under 10 nM and Dmax near 90%. […] We conducted metabolomics studies to estimate if cellular penetration and stability may contribute to the relative potencies (Supporting Table 2). NC-1 and RC-3 reached an effective concentration that was ∼2 times higher than IR-2 and ∼10 times higher than RC-2. Therefore, the lower potency of RC-2 can at least in part be explained by lower permeability or stability.
Figure 2 Efficient BTK degradation in cells. (A) Western blot evaluation of BTK levels in Mino cells in response to various concentrations of RC-2, IR-2, NC-1, and RC-3, after 24 h of incubation. (B) Quantification of BTK levels in (A) by normalization to the β-actin house-keeping gene in Mino cells. DC50 and Dmax were calculated by fitting the data to a second-order polynomial using Prism software. (C) Summary of the DC50 and Dmax values for the PROTACs in Mino cells described in (A) and Supporting Figure 2. TEXT PRINTED IN THE PICTURE: (C) NC-1: DC50 (nM): 2.2; Dmax (%): 97 | (C) IR-1: DC50 (nM): 8.6; Dmax (%): 91 | (C) IR-2: DC50 (nM): 1.9; Dmax (%): 88 | (C) RC-1: DC50 (nM): 10; Dmax (%): 68 | (C) RC-2: DC50 (nM): 35; Dmax (%): 66 | (C) RC-3: DC50 (nM): 6; Dmax (%): 85
(§1) Ramos (ATCC, CRL-1596), Mino (ATCC, CRL-3000), or K562 (NCI-60) cell lines were counted and diluted to 10^6 cell/mL, using 1 mL per well in a 24-well plate, and U2OS (ATCC HTB-96) cells overexpressing human BTK WT or C481S mutant were grown using 2 mL in a six-well plate (see Supporting Information). Cells were incubated with 1% DMSO or compound in indicated concentrations for 24 h unless indicated differently, or cells were left untreated. Lysates were prepared as previously described,[29] and samples were measured for total protein quantification by bicinchoninic acid (BCA) assay (#23225 ThermoFisher Scientific) supplemented with 4× loading buffer including 20 mM DTT, heated to 70 °C for 10 min, loaded into 4% SDS-PAGE gel, run for 45 min at 140 mV, then transferred into a nitrocellulose membrane (Biorad) using a Trans-Blot Turbo transfer system (Biorad). The membrane was stained with Ponceau (Sigma) to validate transfer for 10 min in gentle agitation then destained for 1 h with MQ water. The membrane was blocked with Licor blocking buffer (LIC927-70001) for 1 h, washed three times for 5 min with TBS-T, incubated with primary antibody BTK (D3H5) rabbit mAb (CST; 8547 S) overnight (16 h) at 4 °C, washed three times for 5 min with TBS-T, and incubated with primary antibody against β-actin (CST; 3700) for 1 h at 25 °C. Membrane was washed three times for 5 min with TBS-T, incubated with fluorescent secondary antibodies anti-mouse IgG Alexa Fluor 647 (CST: 4410S) and anti-rabbit-IgG IRDye 800(LICOR: 926-32211) for 1 h, then washed three times for 5 min with TBS-T, dried, and immediately imaged and analyzed using Licor Odyssey CLx. Prism (GraphPad) software was used to calculate degradation levels. We used second-order polynomial fits to estimate DC50 and Dmax values.

[3] = biological target: T1, BTK; assay: Library screen of BTK abundance by Western blot in K562 or Mino cells; assay type: cell-based; design: endogenous in cells; host or cells: Mino (ATCC CRL-3000), Ramos (ATCC CRL-1596), K562 (NCI-60); settings: 1 μM compound, 24 h
Description: We incubated K562 or Mino cells with 1 μM of the compounds for 24 h and measured the abundance of BTK by Western blot (Supporting Figure 1). […] On the basis of compound RC-1 we synthesized additional compounds (Figure 1), RC-2 with a CH2 group replacing the oxygen nearest the β-carbon, their analogous acrylamides IR-1 and IR-2, and the noncovalent analogue NC-1. We also synthesized the cyanoacrylamide RC-3 (Figure 1), replacing the Cα hydrogens with methyl groups. Similar dimethylated cyanoacrylamides were reported to have improved cellular permeability.[34]
Ramos (ATCC, CRL-1596), Mino (ATCC, CRL-3000), or K562 (NCI-60) cell lines were counted and diluted to 10^6 cell/mL, using 1 mL per well in a 24-well plate, and U2OS (ATCC HTB-96) cells overexpressing human BTK WT or C481S mutant were grown using 2 mL in a six-well plate (see Supporting Information). […] Lysates were prepared as previously described,[29] and samples were measured for total protein quantification by bicinchoninic acid (BCA) assay (#23225 ThermoFisher Scientific) supplemented with 4× loading buffer including 20 mM DTT, heated to 70 °C for 10 min, loaded into 4% SDS-PAGE gel, run for 45 min at 140 mV, then transferred into a nitrocellulose membrane (Biorad) using a Trans-Blot Turbo transfer system (Biorad). […]

[4] = biological target: T1, BTK; assay: Time course of BTK degradation in Ramos and Mino cells; assay type: cell-based; design: endogenous in cells; host or cells: Mino (ATCC CRL-3000), Ramos (ATCC CRL-1596), K562 (NCI-60); settings: 100 nM PROTAC, Ramos cells (RC-3: Mino cells)
Description: We followed the rate of BTK degradation facilitated by this compound series via a time course experiment in Ramos and Mino cells (Supporting Figure 3). The rates of degradation correlated well with the DC50 values observed after 24 h, with NC-1, IR-1, IR-2, and RC-3 degrading BTK within 2–4 h, while RC-2 and RC-1 required 6–24 h to reach maximum degradation.
as §1
Supplementary Figure 3: BTK degradation time dependency.
Ramos (PI3I, RC-1, I R-1, R C-2, I R-2, NC-1) or Mino ( RC-3) cells were treated with 100 nM of PROTAC or DMSO for indicated times, subsequently harvested for BTK levels measurement via western blot.
(1 picture or pasted object on this page, not shown here)

[5] = biological target: T1, BTK; assay: Mechanism validation: pretreatment with ibrutinib, thalidomide-OH or bortezomib before PROTAC in Mino cells; assay type: cell-based; design: endogenous in cells; host or cells: Mino (ATCC CRL-3000), Ramos (ATCC CRL-1596), K562 (NCI-60)

Chain of wild-type BTK (Q06187 whole entry, species assumed): as the sequence (Q06187 whole entry) above

- IC50 [1]: 12 nM
- Dmax [2]: 68%
- time to degrade BTK / reach maximum degradation [4]: 6 to 24 h
Compound: N#CC(=CCOCCOCCOCCOCCOCCOc1cccc2c1C(=O)N(C1CCC(=O)NC1=O)C2=O)C(=O)N1CCCC(n2nc(-c3ccc(Oc4ccccc4)cc3)c3c(N)ncnc32)C1 (stereo not drawn) [RC-1]
- BTK degradation (abundance of BTK by Western blot) [3]: consistent prominent levels of degradation in both cell lines

- effect of proteasome inhibitor on PROTAC-mediated BTK degradation ([5]; 1 h bortezomib, then PROTAC 4 h): significantly inhibited degradation
Compound: CC(C)C[C@H](NC(=O)[C@H](Cc1ccccc1)NC(=O)c1cnccn1)B(O)O [bortezomib]

- effect of pretreatment on PROTAC-mediated BTK degradation ([5]; 2 h pretreatment, then PROTAC 24 h): hindered BTK degradation
Compound: O=C1CCC(N2C(=O)c3cccc(O)c3C2=O)C(=O)N1 (stereo not drawn) [thalidomide-OH]
